Assay results from patent publication US8026232B2, “Benzothiophene oxide derivative and salt thereof” (Toyama Chemical Co., Ltd., priority 2008, dated 2011).
Where a name gives a salt, the structure may show the parent alone.

Assay: Test Example 1: concentration of compound A in plasma and brain after oral administration to rats
Assay type: in vivo, rat
Settings: for Brain MRT (mean residence time) of the compound A / Brain T1/2 (elimination half-life) of the compound A / Plasma MRT (mean residence time) of the compound A / Plasma T1/2 (elimination half-life) of the compound A: rat (Crl: CD male), oral, without fasting, 56 mg/kg compound A maleate or 58 mg/kg compound A oxide maleate; for Brain MRT (mean residence time) of the compound A / Brain T1/2 (elimination half-life) of the compound A: compound A measured in brain; for Plasma MRT (mean residence time) of the compound A / Plasma T1/2 (elimination half-life) of the compound A: compound A measured in plasma
Description: In the compound A administration solution, the concentration of the compound A maleate was adjusted to be 14 mg/mL by dissolving the compound A maleate in a physiological saline solution. In the compound A oxide administration solution, the concentration of the compound A oxide maleate was adjusted to be 14.54 mg/mL by dissolving the compound A oxide maleate in a physiological saline solution.
Each of the administration solutions was orally administered to rats (Crl: CD strain male rat: 8 weeks old) without fasting. The dosage was set at 56 mg/kg for the compound A administration group and 58 mg/kg for the compound A oxide administration group.
At 0.25, 0.5, 1, 2, 5, 8, 10 and 12 hours after the administration, for each group, heparinized whole blood was collected from the aorta abdominalis under mild ether anesthesia, and then the rats were killed by exsanguination and the brains were excised.
The collected blood was centrifuged at 4° C. for 10 minutes at approximately 1600×g to obtain the plasma. To 100 μL of the resulting plasma was added 900 μL of distilled water containing 25 ng/mL of the internal standard substance and 25 μL of phosphoric acid, and the resulting mixture was stirred, followed by adding to a solid-phase extraction plate (Oasis HLB 10 mg or 30 mg, manufactured by Waters) which was conditioned with methanol and distilled water. The solid-phase extraction plate was washed with 2 mL of distilled water, followed by eluting with 2 mL of acetonitrile. The eluate was concentrated and dried-up and then dissolved in a mobile phase A solution, followed by centrifuging at 4° C. for 10 minutes at approximately 1600×g. The resulting supernatant was subjected to a liquid chromatography-tandem mass spectrometer to determine the concentration of the compound A in the plasma of each group.
The excised brains were homogenized with 25% ammonia water/methanol (1:49) (10-fold volume of the wet brain weight) and then 2 mL of the homogenate was centrifuged at 4° C. for 10 minutes at approximately 1600×g to separate the supernatant. To the sediment was added 2 mL of 25% ammonia water/methanol (1:49), followed by centrifuging at 4° C. for 10 minutes at approximately 1600×g. These supernatants were combined and concentrated and dried-up and then dissolved in 1 mL of distilled water containing 25 ng/mL of the internal standard substance. To the resulting solution was added 25 μL of phosphoric acid and the resulting mixture was stirred, followed by subjecting to a solid-phase extraction operation similar to that for the above plasma. The resulting eluate was concentrated and dried-up and then dissolved in the mobile phase A solution or 50% methanol, followed by centrifuging at 4° C. for 10 minutes at approximately 1600×g. The resulting supernatant was subjected to the liquid chromatography-tandem mass spectrometer to determine the concentration of the compound A in the brain of each group.
The following instruments and conditions were used for the measurement of the concentration of the compound A.

[1] = rat, oral administration of the compound A oxide, result in words

SMILES | Brain MRT (mean residence time) of the compound A | Brain T1/2 (elimination half-life) of the compound A | Plasma MRT (mean residence time) of the compound A | Plasma T1/2 (elimination half-life) of the compound A | concentration of the compound A in the plasma and brain [1] | residence time of the compound A in the body [1]
[O-][s+]1ccc2cc(CCOCCCN3CC(O)C3)ccc21 (stereo not shown) [Compound A oxide Maleate, 1-(3-(2-(1-benzothiophen-5-yl)ethoxy)propyl)azetidin-3-ol S-oxide maleate] | 5.72 h | 2.28 h | 5.41 h | 2.69 h |  | 
O=C(O)/C=C\C(=O)O.OC1CN(CCCOCCc2ccc3sccc3c2)C1 [Compound A Maleate, 1-(3-(2-(1-benzothiophen-5-yl)ethoxy)propyl)azetidin-3-ol maleate, reference compound] | 3.01 h | 1.53 h | 2.86 h | 1.56 h |  | 
[O-][s+]1ccc2cc(CCOCCCN3CC(O)C3)ccc21 (stereo not shown) [compound A oxide, 1-(3-(2-(1-benzothiophen-5-yl)ethoxy)propyl)azetidin-3-ol S-oxide] |  |  |  |  | maintained at a high concentration | prolonged
